Columns and labels:
[1] = biological target: T1, GluK3a (Rattus norvegicus, UniProt P42264); assay: Intracellular Ca2+ imaging assay, HEK293 cells expressing GluK3a; format: cell-based
T1 construct: expressed in transfected cells
From the text: For the determination of antagonistic activity of compounds at GluK1, GluK3 and GluA2 receptors, stable HEK293 cell lines expressing rat GluK1b(Q), GluK3a, and GluA2(Q)i were created. A polyclonal stable cell line expressing GluK3a was created as described previously. For the creation of polyclonal stable cell lines expressing GluK1and GluA2 receptors, cDNA encoding blasticidin-S deaminase (blas) enzymes were inserted into the pIRES plasmid vector (Clontech, Mountain View, CA, USA) to create the plasmid vector pRES(blas). Subsequently, cDNA for rat GluK1(Q)1b and the flip isoform of rat GluA2(Q)i were inserted into pRES(blas) to create the expression constructs GluK1b(Q)pIRES(blas) and GluA2i(Q)pIRES(blas), respectively. These were used to transfect GripTite^TM HEK293 cells followed by selecting with 20 µg/mL blasticidin (Invivogen, Toulouse, France) and 0.50 mg/mL geneticin in the presence of 20 µM of the AMPA receptor antagonist CNQX (Tocris, Bristol, UK) until stably transfected GluK1b(Q) and GluA2(Q)i cell lines were obtained. For functional assays, cells were plated into clear-bottomed, black 96-well fluorescence culture plates (Corning, Vordingborg, Denmark), and when >70% confluent, the cells were loaded with 2 μM Fluo 4-AM calcium sensitive dye (Abcam, Cambridge, UK) and used for the imaging of agonist-evoked changes in intracellular Ca^2+ using a FlexStation I plate reader (Molecular Devices, San Jose, CA, USA). […] Changes in dye fluorescence in response to the addition of an agonist solution were then measured at 538 nm using excitation at 485 nm and emission cut-off at 515 nm. Baseline fluorescence was measured for 16 s before the addition of 50 µL agonist solution to each well of the assay plate, and fluorescence was measured for 120 to 160 s after addition of the agonists. Peak change in fluorescence was calculated as the difference between the maximal observed increase in fluorescence and pre-agonist baseline fluorescence. The agonist solutions contained 100 µM KA together with 300 µM of the KAR positive allosteric modulator BPAM344 (Sigma-Aldrich Chemical, St. Louis, MO, USA) for GluK1 and GluK3 experiments or 100 µM glutamate together with 100 µM of the AMPAR positive allosteric modulator cyclothiazide for GluA2 experiments (HelloBio, Bristol, UK). Responses were determined in at least triplicate at each compound concentration.

[2] = biological target: T2, GluK1b(Q) (Rattus norvegicus, UniProt P22756); assay: Intracellular Ca2+ imaging assay, HEK293 cells expressing GluK1b(Q); format: cell-based; settings: 10 µM compound, Ca2+ fluorescence, read-out: inhibition of agonist-evoked responses at GluK1
T2 construct: expressed in transfected cells
T2 sequence (P22756 31-920 isoform P22756-4 limits assumed): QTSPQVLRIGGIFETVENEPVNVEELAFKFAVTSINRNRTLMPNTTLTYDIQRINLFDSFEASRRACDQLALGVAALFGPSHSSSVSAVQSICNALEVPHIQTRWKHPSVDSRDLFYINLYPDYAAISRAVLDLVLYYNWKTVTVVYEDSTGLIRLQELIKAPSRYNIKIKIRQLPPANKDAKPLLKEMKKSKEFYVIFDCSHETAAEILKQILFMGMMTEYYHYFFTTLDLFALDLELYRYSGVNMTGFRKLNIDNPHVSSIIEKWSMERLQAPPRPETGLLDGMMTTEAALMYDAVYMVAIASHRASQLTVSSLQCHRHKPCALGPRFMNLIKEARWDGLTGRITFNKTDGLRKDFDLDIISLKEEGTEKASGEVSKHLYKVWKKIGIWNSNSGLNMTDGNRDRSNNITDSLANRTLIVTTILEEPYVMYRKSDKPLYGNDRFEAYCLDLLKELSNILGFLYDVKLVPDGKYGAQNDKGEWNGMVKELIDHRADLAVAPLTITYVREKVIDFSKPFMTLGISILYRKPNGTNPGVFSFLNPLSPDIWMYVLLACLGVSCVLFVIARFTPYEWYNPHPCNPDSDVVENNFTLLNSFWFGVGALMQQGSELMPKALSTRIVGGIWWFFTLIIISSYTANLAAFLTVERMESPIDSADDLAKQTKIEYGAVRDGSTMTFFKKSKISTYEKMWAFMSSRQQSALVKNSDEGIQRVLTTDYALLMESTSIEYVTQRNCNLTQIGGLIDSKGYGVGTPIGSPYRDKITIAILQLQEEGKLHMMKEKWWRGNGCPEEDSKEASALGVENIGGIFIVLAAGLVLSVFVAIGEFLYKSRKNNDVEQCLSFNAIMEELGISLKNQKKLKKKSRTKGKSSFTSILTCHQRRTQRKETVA
From the text: (§1) For the determination of antagonistic activity of compounds at GluK1, GluK3 and GluA2 receptors, stable HEK293 cell lines expressing rat GluK1b(Q), GluK3a, and GluA2(Q)i were created. A polyclonal stable cell line expressing GluK3a was created as described previously. For the creation of polyclonal stable cell lines expressing GluK1and GluA2 receptors, cDNA encoding blasticidin-S deaminase (blas) enzymes were inserted into the pIRES plasmid vector (Clontech, Mountain View, CA, USA) to create the plasmid vector pRES(blas). […] For functional assays, cells were plated into clear-bottomed, black 96-well fluorescence culture plates (Corning, Vordingborg, Denmark), and when >70% confluent, the cells were loaded with 2 μM Fluo 4-AM calcium sensitive dye (Abcam, Cambridge, UK) and used for the imaging of agonist-evoked changes in intracellular Ca^2+ using a FlexStation I plate reader (Molecular Devices, San Jose, CA, USA). […] Changes in dye fluorescence in response to the addition of an agonist solution were then measured at 538 nm using excitation at 485 nm and emission cut-off at 515 nm. Baseline fluorescence was measured for 16 s before the addition of 50 µL agonist solution to each well of the assay plate, and fluorescence was measured for 120 to 160 s after addition of the agonists. […] Responses were determined in at least triplicate at each compound concentration.

[3] = biological target: T3, GluA2(Q)i (Rattus norvegicus, UniProt P19491); assay: Intracellular Ca2+ imaging assay, HEK293 cells expressing GluA2(Q)i; format: cell-based; settings: 10 µM compound, Ca2+ fluorescence, read-out: inhibition of agonist-evoked responses at GluA2
T3 construct: expressed in transfected cells
T3 sequence (P19491 22-883 isoform P19491-2 limits assumed): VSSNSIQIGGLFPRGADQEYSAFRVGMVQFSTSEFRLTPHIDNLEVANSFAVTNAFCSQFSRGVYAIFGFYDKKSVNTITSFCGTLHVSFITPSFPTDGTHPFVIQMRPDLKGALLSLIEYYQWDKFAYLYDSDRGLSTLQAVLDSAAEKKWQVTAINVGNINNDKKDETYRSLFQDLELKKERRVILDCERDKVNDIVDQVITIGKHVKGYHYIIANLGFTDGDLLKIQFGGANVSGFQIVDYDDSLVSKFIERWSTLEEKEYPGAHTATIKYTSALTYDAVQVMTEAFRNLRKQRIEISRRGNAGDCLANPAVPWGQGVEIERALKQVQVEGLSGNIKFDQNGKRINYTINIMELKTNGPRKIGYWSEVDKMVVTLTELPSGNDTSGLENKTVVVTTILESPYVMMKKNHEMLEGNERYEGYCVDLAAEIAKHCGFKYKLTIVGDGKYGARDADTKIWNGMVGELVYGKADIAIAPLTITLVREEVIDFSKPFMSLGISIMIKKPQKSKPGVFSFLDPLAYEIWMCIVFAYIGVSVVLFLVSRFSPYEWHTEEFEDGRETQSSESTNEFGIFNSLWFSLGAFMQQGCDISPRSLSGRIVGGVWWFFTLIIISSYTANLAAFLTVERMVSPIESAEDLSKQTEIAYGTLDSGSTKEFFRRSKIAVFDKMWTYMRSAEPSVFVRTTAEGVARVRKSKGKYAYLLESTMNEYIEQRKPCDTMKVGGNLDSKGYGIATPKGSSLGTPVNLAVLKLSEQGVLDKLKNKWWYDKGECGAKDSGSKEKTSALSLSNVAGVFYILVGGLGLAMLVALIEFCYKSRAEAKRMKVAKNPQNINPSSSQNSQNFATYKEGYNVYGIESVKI
From the text: as §1

T1 sequence (P42264 32-919): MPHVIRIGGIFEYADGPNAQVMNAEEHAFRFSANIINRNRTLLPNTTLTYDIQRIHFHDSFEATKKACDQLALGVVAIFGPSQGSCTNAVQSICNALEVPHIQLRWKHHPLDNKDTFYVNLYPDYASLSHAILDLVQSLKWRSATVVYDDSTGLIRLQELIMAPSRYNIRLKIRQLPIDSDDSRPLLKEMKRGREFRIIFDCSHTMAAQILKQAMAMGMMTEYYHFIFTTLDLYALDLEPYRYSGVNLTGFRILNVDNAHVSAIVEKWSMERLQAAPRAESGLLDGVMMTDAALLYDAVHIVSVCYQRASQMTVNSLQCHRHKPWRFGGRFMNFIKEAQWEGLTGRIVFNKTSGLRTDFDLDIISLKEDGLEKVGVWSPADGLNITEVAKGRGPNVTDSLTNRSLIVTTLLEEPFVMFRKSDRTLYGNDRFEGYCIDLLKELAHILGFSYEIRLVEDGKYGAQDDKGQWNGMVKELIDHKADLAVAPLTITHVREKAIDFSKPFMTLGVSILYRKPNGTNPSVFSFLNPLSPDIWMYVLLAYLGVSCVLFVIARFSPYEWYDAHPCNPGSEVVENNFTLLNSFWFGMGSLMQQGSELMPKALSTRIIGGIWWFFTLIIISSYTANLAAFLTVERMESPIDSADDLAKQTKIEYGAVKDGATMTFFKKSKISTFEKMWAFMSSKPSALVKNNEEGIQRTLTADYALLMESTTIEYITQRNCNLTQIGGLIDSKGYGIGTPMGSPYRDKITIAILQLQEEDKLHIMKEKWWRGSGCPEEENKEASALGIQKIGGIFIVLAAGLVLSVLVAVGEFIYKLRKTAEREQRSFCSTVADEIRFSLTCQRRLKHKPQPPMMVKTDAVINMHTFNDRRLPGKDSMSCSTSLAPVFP

- inhibition of agonist-evoked responses at GluK3 ([1]; 10 µM compound, Ca2+ fluorescence): full inhibition
- IC50 ([1]; 100 µM KA + 300 µM BPAM344, Ca2+ fluorescence, read-out: IC50, antagonism of agonist-evoked responses at GluK3): 3.6 µM
- inhibition at 10 µM [2]: < 5%
- inhibition at 10 µM [3]: < 5%
- melting point: 314 to 315 °C
Structure (SMILES): O=C(Nn1c(=O)c(=O)[nH]c2cc(C#Cc3cnc4cccnn34)ccc21)c1ccccc1 [Compound 28]

From article PMC9369419 (International Journal of Molecular Sciences, 2022)
